Measurements published in patent US20260022143A1, “Cyclic Peptide Inhibitors of IL-23” (JANSSEN PHARMACEUTICA NV, priority 2022, published 2026).
Where a name gives a salt, the structure may show the parent alone. Starred links: 1 amine or outer side, 2 acyl side, 3 side chain; linkers in the order of their positions; H or OH if unused. Positions of bridges follow the written chain, without caps; N, C: chain ends. Non-standard residues stand in square brackets, D forms with d. Residues, ends and D or L forms follow the SMILES beside them. *: point of attachment. X21 = O=C([C@H](Cc1cncc(C(F)(F)F)c1)N[*:1])[*:2]; Trp(7-Me) = Cc1cccc2c(C[C@H](N)C(=O)O)c[nH]c12; 2Nal = N[C@@H](Cc1ccc2ccccc2c1)C(=O)O; AEF = NCCOc1ccc(C[C@H](N)C(=O)O)cc1; 3Pal = N[C@@H](Cc1cccnc1)C(=O)O; Lys(Me) = CNCCCC[C@H](N)C(=O)O; Pen = CC(C)(S)[C@H](N)C(=O)O; Thp = NC1(C(=O)O)CCOCC1; Tfa = O=C(C(F)(F)F)*; NHtBu = CC(C)(C)N*; Sar = CNCC(=O)O

Experiments:
[1] = Exposed Polar Surface Area (EPSA); format: physicochemical; conditions: SFC on Chirex 3014 column; sample 1 mM DMSO stock; read-out: EPSA
In short: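 Chirex 3014 column, 35 °C, 4 mL/min; CO2/MeOH + 20 mM NH4 formate, 5→60% modifier at 20%/min. UV/MS detection. EPSA (Å^2) from retention time vs 8-standard calibration line; duplicates; 1 mM DMSO stock injected undiluted.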

[2] = biological target: T1, IL-23R (Homo sapiens, UniProt Q5VWK5); assay: IL23R Reporter Assay; format: cell-based; conditions: HEK293 cells containing IL-23R, IL-12RP1 and STAT-inducible firefly luciferase reporter; 10 ng/mL IL-23 (EC90); 5 h at 37° C.; read-out: IL23R Reporter Assay
T1 construct: host or cells: HEK293
T1 sequence (Q5VWK5 24-629): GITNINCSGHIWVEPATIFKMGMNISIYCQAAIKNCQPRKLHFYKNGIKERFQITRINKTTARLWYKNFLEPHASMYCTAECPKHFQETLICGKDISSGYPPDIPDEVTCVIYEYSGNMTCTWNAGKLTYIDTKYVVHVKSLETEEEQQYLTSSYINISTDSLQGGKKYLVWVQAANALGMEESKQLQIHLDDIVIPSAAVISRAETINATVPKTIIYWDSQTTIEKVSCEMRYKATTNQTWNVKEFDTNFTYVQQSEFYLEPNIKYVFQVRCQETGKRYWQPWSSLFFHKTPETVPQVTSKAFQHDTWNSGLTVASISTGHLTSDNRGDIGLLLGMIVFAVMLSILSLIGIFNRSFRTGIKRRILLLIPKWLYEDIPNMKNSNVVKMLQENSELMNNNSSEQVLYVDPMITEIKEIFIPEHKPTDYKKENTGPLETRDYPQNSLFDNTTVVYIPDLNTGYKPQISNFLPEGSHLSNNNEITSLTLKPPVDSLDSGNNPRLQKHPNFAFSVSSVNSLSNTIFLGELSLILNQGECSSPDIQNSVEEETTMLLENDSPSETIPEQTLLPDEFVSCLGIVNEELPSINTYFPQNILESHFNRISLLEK

| Compound | EPSA [1] [A^2] | IC50 [2] [nM] |
| --- | --- | --- |
| CNC(=O)C[C@@H]1NC(=O)[C@@H](NC(C)=O)C(C)(C)SSC(C)(C)[C@@H](C(=O)N[C@@H](Cc2ccc(OCCN)cc2)C(=O)N[C@@H](Cc2ccc3ccccc3c2)C(=O)NC2(C(=O)N[C@@H](CCCCNC(C)=O)C(=O)N[C@@H](CC(N)=O)C(=O)N[C@@H](Cc3cccnc3)C(=O)N(C)CC(N)=O)CCOCC2)NC(=O)[C@H](CCCCNC(C)=O)NC(=O)[C@H](Cc2c[nH]c3c(C)cccc23)NC(=O)[C@H]([C@@H](C)O)NC1=O [compound 46] (Ac-[Pen]D(NHMe)T[Trp(7-Me)]K(Ac)[Pen][AEF][2Nal][Thp]K(Ac)N[3Pal][Sar]-NH2; disulfide 1-6 (inferred)) | 162 | 3.2 |
| CC(=O)NCCCC[C@@H]1NC(=O)[C@H](Cc2c[nH]c3c(C)cccc23)NC(=O)[C@H]([C@@H](C)O)NC(=O)[C@H](CC(=O)N(C)C)NC(=O)[C@@H](NC(=O)C(F)(F)F)C(C)(C)SSC(C)(C)[C@@H](C(=O)N[C@@H](Cc2ccc(OCCN)cc2)C(=O)N[C@@H](Cc2ccc3ccccc3c2)C(=O)NC2(C(=O)N[C@@H](CCCCNC(C)=O)C(=O)N[C@@H](CC(N)=O)C(=O)N[C@@H](Cc3cccnc3)C(=O)N(C)CC(N)=O)CCOCC2)NC1=O [compound 52, CF3CO-Pen(3)-N(N(Me)2)-T-7MeW-K(Ac)-Pen(3)-AEF-2Nal-THP-K(Ac)-N-3Pya-Sar-CONH2] (Tfa-[Pen]D(NMe2)T[Trp(7-Me)]K(Ac)[Pen][AEF][2Nal][Thp]K(Ac)N[3Pal][Sar]-NH2; disulfide 1-6 (inferred)) | 158 | 4.6 |
| CC(=O)NCCCC[C@@H]1NC(=O)[C@H](Cc2c[nH]c3c(C)cccc23)NC(=O)[C@H]([C@@H](C)O)NC(=O)[C@H](CC(N)=O)NC(=O)[C@@H](NC(=O)C(F)(F)F)C(C)(C)SSC(C)(C)[C@@H](C(=O)N[C@@H](Cc2ccc(OCCN)cc2)C(=O)N[C@@H](Cc2ccc3ccccc3c2)C(=O)NC2(C(=O)N[C@@H](CCCCNC(C)=O)C(=O)N[C@@H](CC(N)=O)C(=O)N[C@@H](Cc3cncc(C(F)(F)F)c3)C(=O)N(C)CC(N)=O)CCOCC2)NC1=O [compound 56] (Tfa-[Pen]NT[Trp(7-Me)]K(Ac)[Pen][AEF][2Nal][Thp]K(Ac)N[X21][Sar]-NH2; disulfide 1-6 (inferred)) | 158 | 5.7 |
| CNC(=O)C[C@@H]1NC(=O)[C@@H](NC(C)=O)C(C)(C)SSC(C)(C)[C@@H](C(=O)N[C@@H](Cc2ccc(OCCNC(C)=O)cc2)C(=O)N[C@@H](Cc2ccc3ccccc3c2)C(=O)NC2(C(=O)N[C@@H](CCCCN(C)C(C)=O)C(=O)N[C@@H](CC(N)=O)C(=O)N[C@@H](Cc3cccnc3)C(=O)N(C)CC(N)=O)CCOCC2)NC(=O)[C@H](CCCCN(C)C(C)=O)NC(=O)[C@H](Cc2c[nH]c3c(C)cccc23)NC(=O)[C@H]([C@@H](C)O)NC1=O [compound 58] (Ac-[Pen]D(NHMe)T[Trp(7-Me)][Lys(Me)](Ac)[Pen][AEF](Ac)[2Nal][Thp][Lys(Me)](Ac)N[3Pal][Sar]-NH2; disulfide 1-6) | 154 | 4.3 |
| CC(=O)NCCCC[C@H](NC(=O)C1(NC(=O)[C@H](Cc2ccc3ccccc3c2)NC(=O)[C@H](Cc2ccc(OCCN)cc2)NC(=O)[C@H]2NC(=O)[C@H](CCC(=O)NC(C)(C)C)NC(=O)[C@H](Cc3c[nH]c4c(C)cccc34)NC(=O)[C@H]([C@@H](C)O)NC(=O)[C@H](CC(N)=O)NC(=O)[C@@H](NC(=O)C(F)(F)F)C(C)(C)SSC2(C)C)CCOCC1)C(=O)N[C@@H](CC(N)=O)C(=O)N[C@@H](Cc1cccnc1)C(=O)N(C)CC(N)=O [compound 60] (Tfa-[Pen]NT[Trp(7-Me)]E(NHtBu)[Pen][AEF][2Nal][Thp]K(Ac)N[3Pal][Sar]-NH2; disulfide 1-6 (inferred)) | 157 | 3.5 |
